Results: patent publication US12679843B2, “Pyrrolopyrimidine amines as complement inhibitors” (BioCryst Pharmaceuticals, Inc., priority 2020, dated 2026)

These molecules were tested against Factor D (Homo sapiens, UniProt P00746) (assay: Factor D esterolytic assay (Z-Lys-SBzl thioester substrate, DTNB, 405 nm)). Conditions: substrate Z-Lys-SBzl 1.29 mM, 100 mM HEPES, 500 mM NaCl, pH 7.5, 10% DMSO, tested a minimum of three times.
Format: biochemical
Procedure, shortened: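 Run in pH 7.5 HEPES (100 mM) with 500 mM NaCl and 10% DMSO, with compound preincubated at room temperature or not before adding 1.29 mM Z-Lys-SBzl. Free thiol released by Factor D reacts with DTNB, and rate is followed at 405 nm minus 690 nm over 600 s. IC50 derives from rate-based inhibition, minimum three replicates.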

Factor D, sequence (P00746 26-253): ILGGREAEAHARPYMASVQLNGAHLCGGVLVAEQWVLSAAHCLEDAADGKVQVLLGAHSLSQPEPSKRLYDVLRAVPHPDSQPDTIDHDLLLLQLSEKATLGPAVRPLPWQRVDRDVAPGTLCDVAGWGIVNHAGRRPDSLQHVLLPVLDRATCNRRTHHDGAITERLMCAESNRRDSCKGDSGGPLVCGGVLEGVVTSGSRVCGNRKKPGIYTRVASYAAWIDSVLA

IC50 [µM]	Structure (SMILES)
< 0.1	Cc1cccc(-c2ccc3c(c2)c2c(N)ncnc2n3CC(=O)N2[C@@H]3C[C@@H]3C[C@H]2C(=O)Nc2cccc(Br)n2)c1 [Compound 271c, (1R,3S,5R)-2-(2-(4-amino-6-(m-tolyl)-9H-pyrimido[4,5-b]indol-9-yl)acetyl)-N-(6-bromopyridin-2-yl)-2-azabicyclo[3.1.0]hexane-3-carboxamide]
0.1 to 1	Nc1ncnc2c1c1cc(C(F)(F)F)ccc1n2CC(=O)N1[C@@H]2C[C@@H]2C[C@H]1C(=O)Nc1ccccn1 [Compound 272c, (1R,3S,5R)-2-(2-(4-amino-6-(trifluoromethyl)-9H-pyrimido[4,5-b]indol-9-yl)acetyl)-N-(pyridin-2-yl)-2-azabicyclo[3.1.0]hexane-3-carboxamide]
< 0.1	Nc1ncnc2c1c1cc(-c3cccnc3)ccc1n2CC(=O)N1[C@@H]2C[C@@H]2C[C@H]1C(=O)Nc1cccc(Br)n1 [Compound 273c, (1R,3S,5R)-2-(2-(4-amino-6-(pyridin-3-yl)-9H-pyrimido[4,5-b]indol-9-yl)acetyl)-N-(6-bromopyridin-2-yl)-2-azabicyclo[3.1.0]hexane-3-carboxamide]
< 0.1	Nc1ncnc2c1c1cc(OC(F)(F)F)ccc1n2CC(=O)N1[C@@H]2C[C@@H]2C[C@H]1C(=O)Nc1cccc(Br)n1 [Compound 274g, (1R,3S,5R)-2-(2-(4-amino-6-(trifluoromethoxy)-9H-pyrimido[4,5-b]indol-9-yl)acetyl)-N-(6-bromopyridin-2-yl)-2-azabicyclo[3.1.0]hexane-3-carboxamide]
< 0.1	Nc1ncnc2c1c1cc(-c3ccoc3)ccc1n2CC(=O)N1[C@@H]2C[C@@H]2C[C@H]1C(=O)Nc1cccc(Br)n1 [Compound 275c, (1R,3S,5R)-2-(2-(4-amino-6-(furan-3-yl)-9H-pyrimido[4,5-b]indol-9-yl)acetyl)-N-(6-bromopyridin-2-yl)-2-azabicyclo[3.1.0]hexane-3-carboxamide]
< 0.1	COc1cc2c3c(N)ncnc3n(CC(=O)N3[C@@H]4C[C@@H]4C[C@H]3C(=O)Nc3cccc(Br)n3)c2cc1OC [Compound 276g, (1R,3S,5R)-2-(2-(4-amino-6,7-dimethoxy-9H-pyrimido[4,5-b]indol-9-yl)acetyl)-N-(6-bromopyridin-2-yl)-2-azabicyclo[3.1.0]hexane-3-carboxamide]
< 0.1	COc1cc2c3c(N)ncnc3n(CC(=O)N3[C@H](C(=O)Nc4cccc(Br)n4)C[C@@]4(C)C[C@@H]34)c2cc1OC [Compound 277a, (1R,3S,5R)-2-(2-(4-amino-6,7-dimethoxy-9H-pyrimido[4,5-b]indol-9-yl)acetyl)-N-(6-bromopyridin-2-yl)-5-methyl-2-azabicyclo[3.1.0]hexane-3-carboxamide]
< 0.1	COc1cc(OC)c2c(c1)c1c(N)ncnc1n2CC(=O)N1[C@@H]2C[C@@H]2C[C@H]1C(=O)Nc1cccc(Br)n1 [Compound 278g, (1R,3S,5R)-2-(2-(4-amino-6,8-dimethoxy-9H-pyrimido[4,5-b]indol-9-yl)acetyl)-N-(6-bromopyridin-2-yl)-2-azabicyclo[3.1.0]hexane-3-carboxamide]
< 0.1	COc1cc(OC)c2c(c1)c1c(N)ncnc1n2CC(=O)N1[C@H](C(=O)Nc2cccc(Br)n2)C[C@@]2(C)C[C@@H]12 [Compound 279a, (1R,3S,5R)-2-(2-(4-amino-6,8-dimethoxy-9H-pyrimido[4,5-b]indol-9-yl)acetyl)-N-(6-bromopyridin-2-yl)-5-methyl-2-azabicyclo[3.1.0]hexane-3-carboxamide]
< 0.1	COc1cc(F)cc2c3c(N)ncnc3n(CC(=O)N3[C@@H]4C[C@@H]4C[C@H]3C(=O)Nc3cccc(Br)n3)c12 [Compound 280g, (1R,3S,5R)-2-(2-(4-amino-6-fluoro-8-methoxy-9H-pyrimido[4,5-b]indol-9-yl)acetyl)-N-(6-bromopyridin-2-yl)-2-azabicyclo[3.1.0]hexane-3-carboxamide]
< 0.1	COc1cc(F)cc2c3c(N)ncnc3n(CC(=O)N3[C@H](C(=O)Nc4cccc(Br)n4)C[C@@]4(C)C[C@@H]34)c12 [Compound 281a, (1R,3S,5R)-2-(2-(4-amino-6-fluoro-8-methoxy-9H-pyrimido[4,5-b]indol-9-yl)acetyl)-N-(6-bromopyridin-2-yl)-5-methyl-2-azabicyclo[3.1.0]hexane-3-carboxamide]
< 0.1	Cc1cc(O)cc2c3c(N)ncnc3n(CC(=O)N3[C@@H]4C[C@@H]4C[C@H]3C(=O)Nc3cccc(Br)n3)c12 [Compound 282a, (1R,3S,5R)-2-(2-(4-amino-6-hydroxy-8-methyl-9H-pyrimido[4,5-b]indol-9-yl)acetyl)-N-(6-bromopyridin-2-yl)-2-azabicyclo[3.1.0]hexane-3-carboxamide]
< 0.1	Cc1ccnc2c3c(N)ncnc3n(CC(=O)N3[C@H](C(=O)Nc4cccc(Br)n4)C[C@@]4(C)C[C@@H]34)c12 [Compound 283g, (1R,3S,5R)-2-(2-(4-amino-8-methyl-9H-pyrido[2′,3′:4,5]pyrrolo[2,3-d]pyrimidin-9-yl)acetyl)-N-(6-bromopyridin-2-yl)-5-methyl-2-azabicyclo[3.1.0]hexane-3-carboxamide]
< 0.1	Cc1ccnc2c3c(N)ncnc3n(CC(=O)N3[C@@H]4C[C@@H]4C[C@H]3C(=O)Nc3cccc(Br)n3)c12 [Compound 284a, (1R,3S,5R)-2-(2-(4-amino-8-methyl-9H-pyrido[2′,3′:4,5]pyrrolo[2,3-d]pyrimidin-9-yl)acetyl)-N-(6-bromopyridin-2-yl)-2-azabicyclo[3.1.0]hexane-3-carboxamide]
< 0.1	Cc1ccc2c(n1)c1c(N)ncnc1n2CC(=O)N1[C@@H]2C[C@@H]2C[C@H]1C(=O)Nc1cccc(Br)n1 [Compound 285g, (1R,3S,5R)-2-(2-(4-amino-6-methyl-9H-pyrido[2′,3′:4,5]pyrrolo[2,3-d]pyrimidin-9-yl)acetyl)-N-(6-bromopyridin-2-yl)-2-azabicyclo[3.1.0]hexane-3-carboxamide]
< 0.1	Cc1ccc2c(n1)c1c(N)ncnc1n2CC(=O)N1[C@H](C(=O)Nc2cccc(Br)n2)C[C@@]2(C)C[C@@H]12 [Compound 286a, (1R,3S,5R)-2-(2-(4-amino-6-methyl-9H-pyrido[2′,3′:4,5]pyrrolo[2,3-d]pyrimidin-9-yl)acetyl)-N-(6-bromopyridin-2-yl)-5-methyl-2-azabicyclo[3.1.0]hexane-3-carboxamide]
< 0.1	Cc1cc(C(F)(F)F)cc2c3c(N)ncnc3n(CC(=O)N3[C@H](C(=O)Nc4cccc(Cl)n4)C[C@@]4(C)C[C@@H]34)c12 [Compound 287a, (1R,3S,5R)-2-(2-(4-amino-8-methyl-6-(trifluoromethyl)-9H-pyrimido[4,5-b]indol-9-yl)acetyl)-N-(6-chloropyridin-2-yl)-5-methyl-2-azabicyclo[3.1.0]hexane-3-carboxamide]
< 0.1	Cc1cc(-c2cccnc2)cc2c3c(N)ncnc3n(CC(=O)N3[C@@H]4C[C@@H]4C[C@H]3C(=O)Nc3cccc(Br)n3)c12 [Compound 288c, (1R,3S,5R)-2-(2-(4-amino-8-methyl-6-(pyridin-3-yl)-9H-pyrimido[4,5-b]indol-9-yl)acetyl)-N-(6-bromopyridin-2-yl)-2-azabicyclo[3.1.0]hexane-3-carboxamide]
